Legend:
Rat mGlu3 = molecular target: T1, Rat mGlu3 (Rattus norvegicus, UniProt P31422); assay: mGlu receptor in vitro assay (thallium flux through GIRK channels / calcium assay), rat mGlu3; assay type: cell-based; details: PAM potency with EC20 glutamate
T1 construct: expressed in transfected cells; host or cells: HEK-293 co-expressing GIRK channels
Method: (§1) Human Embryonic Kidney (HEK-293) cell lines co-expressing rat mGlu receptors 2, 3, 4, 6, 7 or 8 and G protein-coupled inwardly-rectifying potassium (GIRK) channels were grown in Growth Media containing 45% DMEM, 45% F-12, 10% FBS, 20 mM HEPES, 2 mM L-glutamine, antibiotic/antimycotic, non-essential amino acids, 700 μg/mL G418, and 0.6 μg/ml puromycin at 37° C. in the presence of 5% CO2. […] All cell culture reagents were purchased from Invitrogen Corp. (Carlsbad, CA) unless otherwise noted. Calcium assays were used to assess activity of compounds at mGlu1 and mGlu5, as previously described in Engers et al (J. Med. Chem. 2009, 52, 4115-4118). Calcium assays at mGlu3 were performed as described for mGlu5 with the exception that TREx293 mGlu3 Gα15 cells were treated with tetracycline at 20 ng/mL for 20 h prior to assay.
(§2) Compound activity at the group II (mGlu2 and mGlu3) and group III (mGlu4, mGlu6, mGlu7, and mGlu8) was assessed using thallium flux through GIRK channels, a method that has been described in detail. Briefly, cells were plated into 384-well, black-walled, clear-bottomed poly-D-lysine-coated plates at a density of 15,000 cells/20 μL/well in DMEM containing 10% dialyzed FBS, 20 mM HEPES, and 100 units/mL penicillin/streptomycin (assay media). Plated cells were incubated overnight at 37° C. in the presence of 5% CO2. The following day, the medium was exchanged from the cells to assay buffer [Hanks' balanced salt solution (Invitrogen) containing 20 mM HEPES, pH 7.3] using an ELX405 microplate washer (BioTek), leaving 20 μL/well, followed by the addition of 20 μL/well FluoZin2-AM (330 nM final concentration) indicator dye (Invitrogen; prepared as a stock in DMSO and mixed in a 1:1 ratio with Pluronic acid F-127) in assay buffer. Cells were incubated for 1 h at room temperature, and the dye exchanged to assay buffer using an ELX405, leaving 20 μL/well. Test compounds were diluted to 2 times their final desired concentration in assay buffer (0.3% DMSO final concentration). Agonists were diluted in thallium buffer [125 mM sodium bicarbonate (added fresh the morning of the experiment), 1 mM magnesium sulfate, 1.8 mM calcium sulfate, 5 mM glucose, 12 mM thallium sulfate, and 10 mM HEPES, pH 7.3] at 5 times the final concentration to be assayed. Cell plates and compound plates were loaded onto a kinetic imaging plate reader (FDSS 6000 or 7000; Hamamatsu Corporation, Bridgewater, NJ). Appropriate baseline readings were taken (10 images at 1 Hz; excitation, 470±20 nm; emission, 540±30 nm) and test compounds were added in a 20 μL volume and incubated for approximately 2.5 min before the addition of 10 μL of thallium buffer with or without agonist. After the addition of agonist, data were collected for approximately an additional 2.5 min. Data were analyzed using Excel (Microsoft Corp, Redmond, WA). The slope of the fluorescence increase beginning 5 s after thallium/agonist addition and ending 15 s after thallium/agonist addition was calculated, corrected to vehicle and maximal agonist control slope values, and plotted in using either XLfit (ID Business Solutions Ltd) or Prism software (GraphPad Software, San Diego, CA) to generate concentration-response curves. Potencies were calculated from fits using a four-point parameter logistic equation. For concentration-response curve experiments, compounds were serially diluted 1:3 into 10-point concentration response curves and were transferred to daughter plates using an Echo acoustic plate reformatter (Labcyte, Sunnyvale, CA). Test compounds were applied and followed by EC20 concentrations of glutamate.

Rat mGlu2 = molecular target: T2, Rat mGlu2 (Rattus norvegicus, UniProt P31421); assay: mGlu receptor in vitro assay, thallium flux through GIRK channels, rat mGlu2; assay type: cell-based; details: PAM potency with EC20 glutamate
T2 construct: expressed in transfected cells; host or cells: HEK-293 co-expressing GIRK channels
Method: as §1, §2

T1 sequence (P31422 23-879): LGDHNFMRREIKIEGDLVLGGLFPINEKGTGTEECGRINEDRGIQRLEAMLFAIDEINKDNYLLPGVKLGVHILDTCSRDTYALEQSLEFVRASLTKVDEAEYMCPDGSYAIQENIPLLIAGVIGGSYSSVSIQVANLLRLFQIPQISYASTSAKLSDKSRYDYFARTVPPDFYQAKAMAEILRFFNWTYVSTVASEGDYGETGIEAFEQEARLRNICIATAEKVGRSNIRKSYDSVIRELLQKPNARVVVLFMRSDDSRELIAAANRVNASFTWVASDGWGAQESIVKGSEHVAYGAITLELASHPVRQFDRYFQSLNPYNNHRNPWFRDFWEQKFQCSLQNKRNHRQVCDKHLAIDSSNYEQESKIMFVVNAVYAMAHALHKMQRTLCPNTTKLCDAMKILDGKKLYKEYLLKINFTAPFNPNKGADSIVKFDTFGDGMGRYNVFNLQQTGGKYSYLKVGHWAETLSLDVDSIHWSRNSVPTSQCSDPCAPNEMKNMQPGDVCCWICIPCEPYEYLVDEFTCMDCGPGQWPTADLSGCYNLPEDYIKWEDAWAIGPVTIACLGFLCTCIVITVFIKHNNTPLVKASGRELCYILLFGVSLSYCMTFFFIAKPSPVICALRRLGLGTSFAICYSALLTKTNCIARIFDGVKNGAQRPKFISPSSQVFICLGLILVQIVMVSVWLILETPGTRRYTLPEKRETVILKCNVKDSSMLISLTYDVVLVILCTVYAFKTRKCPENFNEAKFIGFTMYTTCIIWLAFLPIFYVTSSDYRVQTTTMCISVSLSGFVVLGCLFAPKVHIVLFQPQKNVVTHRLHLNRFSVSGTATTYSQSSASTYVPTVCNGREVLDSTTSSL
T2 sequence (P31421 19-872): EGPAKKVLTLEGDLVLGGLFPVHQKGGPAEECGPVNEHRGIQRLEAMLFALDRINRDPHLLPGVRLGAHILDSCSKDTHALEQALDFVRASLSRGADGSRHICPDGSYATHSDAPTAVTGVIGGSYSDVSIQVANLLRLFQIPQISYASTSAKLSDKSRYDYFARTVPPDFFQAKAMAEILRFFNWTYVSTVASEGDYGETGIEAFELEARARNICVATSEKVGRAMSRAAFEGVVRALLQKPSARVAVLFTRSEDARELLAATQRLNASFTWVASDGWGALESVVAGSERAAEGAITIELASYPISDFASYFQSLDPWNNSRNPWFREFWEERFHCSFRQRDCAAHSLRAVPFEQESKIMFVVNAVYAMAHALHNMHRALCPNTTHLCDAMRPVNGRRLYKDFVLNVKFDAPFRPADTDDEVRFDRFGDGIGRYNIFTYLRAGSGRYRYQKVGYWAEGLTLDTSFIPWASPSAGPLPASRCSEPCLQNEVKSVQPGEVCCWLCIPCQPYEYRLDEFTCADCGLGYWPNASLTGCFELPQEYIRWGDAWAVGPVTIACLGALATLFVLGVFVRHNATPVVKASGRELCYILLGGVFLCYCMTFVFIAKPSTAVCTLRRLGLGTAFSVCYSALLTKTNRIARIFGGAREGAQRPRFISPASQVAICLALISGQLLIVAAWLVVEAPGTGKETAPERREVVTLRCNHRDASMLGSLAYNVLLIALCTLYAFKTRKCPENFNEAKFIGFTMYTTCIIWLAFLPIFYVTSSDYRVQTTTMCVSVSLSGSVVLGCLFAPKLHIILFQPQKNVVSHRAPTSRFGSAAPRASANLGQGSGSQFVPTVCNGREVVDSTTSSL

Structure (SMILES)	EC50 (Rat mGlu3) [µM]	EC50 (Rat mGlu2) [µM]
Cc1c(OCc2cnc(-c3cccc(C(=O)O)c3)cn2)ccc(C(=O)Cc2ccccc2)c1O [compound 121, 3-(5-((3-Hydroxy-2-methyl-4-(2-phenylacetyl)phenoxy)methyl)pyrazin-2-yl)benzoic acid]	0.593	0.782
CCCC(=O)c1ccc(OCC[S+]([O-])CCOc2ccc(C(=O)O)c(Cl)c2)c(C)c1O (stereo not shown) [Example 40, 4-(2-{[2-(4-Butanoyl-3-hydroxy-2-methylphenoxy)ethyl]sulfinyl}ethoxy)-2-chlorobenzoic acid]	> 30	0.591
Cc1c(OCc2cccc(-c3cccc(C(=O)O)c3)c2)ccc(C(=O)C2CC2)c1O [compound 68, 3′-((4-(Cyclopropanecarbonyl)-3-hydroxy-2-methylphenoxy)methyl)-[1,1′-biphenyl]-3-carboxylic acid]	3.73	0.186
COc1ccc(C(=O)O)cc1OCc1cccc(COc2ccc(C(=O)CC(C)(C)C)c(O)c2C)c1 [compound 90, 3-((3-((4-(3,3-Dimethylbutanoyl)-3-hydroxy-2-methylphenoxy)methyl)benzyl)oxy)-4-methoxybenzoic acid]	0.923	0.322
Cc1c(OCc2cnc(-c3cccc(C(=O)O)c3)cn2)ccc(C(=O)C2CC2)c1O [compound 70, 3-(5-((4-(Cyclopropanecarbonyl)-3-hydroxy-2-methylphenoxy)methyl)pyrazin-2-yl)benzoic acid]	2.55	0.824
Cc1c(OCc2cnc(-c3cccc(-c4nsc(=O)[nH]4)c3)cn2)ccc(C(=O)CC(C)(C)C)c1O [compound 125, 3-(3-(5-((4-(3,3-Dimethylbutanoyl)-3-hydroxy-2-methylphenoxy)methyl)pyrazin-2-yl)phenyl)-1,2,4-thiadiazol-5(4H)-one]	> 30	> 10
Cc1c(OCc2cnc(-c3cccc(S(N)(=O)=O)c3)cn2)ccc(C(=O)CC(C)(C)C)c1O [compound 117, 3-(5-((4-(3,3-Dimethylbutanoyl)-3-hydroxy-2-methylphenoxy)methyl)pyrazin-2-yl)benzenesulfonamide]	> 30	> 30
Cc1c(OCc2cnc(-c3cccc(-c4noc(=O)[nH]4)c3)cn2)ccc(C(=O)CC(C)(C)C)c1O [compound 124, 3-(3-(5-((4-(3,3-Dimethylbutanoyl)-3-hydroxy-2-methylphenoxy)methyl)pyrazin-2-yl)phenyl)-1,2,4-oxadiazol-5(4H)-one]	1.69	2.48
Cc1c(OCc2cnc(-c3cccc(-c4nn[nH]n4)c3)cn2)ccc(C(=O)CC(C)(C)C)c1O [compound 122, 1-(4-((5-(3-(2H-Tetrazol-5-yl)phenyl)pyrazin-2-yl)methoxy)-2-hydroxy-3-methylphenyl)-3,3-dimethylbutan-1-one]	0.282	0.539
CCCC(=O)c1ccc(OCCCCCOc2ccc(F)c(C(=O)O)c2)c(C)c1O [Example 48, 5-[5-(4-Butanoyl-3-hydroxy-2-methylphenoxy)pentyloxy]-2-fluorobenzoic acid]	> 10	0.039
Cc1c(OCc2cccc(-c3cccc(NC(=O)NS(C)(=O)=O)c3)c2)ccc(C(=O)CC(C)(C)C)c1O [compound 88, N-((3′-((4-(3,3-Dimethylbutanoyl)-3-hydroxy-2-methylphenoxy)methyl)-[1,1′-biphenyl]-3-yl)carbamoyl)methanesulfonamide]	> 10	1.53
COc1ccc(NC(=O)NS(C)(=O)=O)cc1OCCCCOc1ccc(C(=O)CC(C)(C)C)c(O)c1C [compound 87, N-((3-(4-(4-(3,3-dimethylbutanoyl)-3-hydroxy-2-methylphenoxy)butoxy)-4-methoxyphenyl)carbamoyl)methanesulfonamide]	2.39	1.32
CCCC(=O)c1ccc(OCCS(=O)(=O)CCOc2cccc(C(=O)O)c2C)c(C)c1O [Example 38, 3-(2-{[2-(4-Butanoyl-3-hydroxy-2-methylphenoxy)ethyl]sulfonyl}ethoxy)-2-methylbenzoic acid]	> 30	> 10
Cc1c(OCCCCCOc2cccc(C(=O)O)c2C)cccc1C(=O)O [compound 98, 3-[5-(3-Carboxy-2-methylphenoxy)pentyloxy]-2-methylbenzoic acid]	> 30	> 10
Cc1c(OCCCCNc2cccc(C(=O)O)c2)ccc(C(=O)CC(C)(C)C)c1O [compound 85, 3-((4-(4-(3,3-Dimethylbutanoyl)-3-hydroxy-2-methylphenoxy)butyl)amino)benzoic acid]	0.81	0.128
CCCC(=O)c1ccc(OCCCCCCOc2cccc(C(=O)O)c2C)c(C)c1O [Example 55, 3-[6-(4-Butanoyl-3-hydroxy-2-methylphenoxy)hexyloxy]-2-methylbenzoic acid]	1.17	0.182
COc1ccc(C(=O)O)cc1OCCCCOc1ccc(C(=O)Cc2ccccc2)c(O)c1C [compound 120, 3-(4-(3-Hydroxy-2-methyl-4-(2-phenylacetyl)phenoxy)butoxy)-4-methoxybenzoic acid]	0.642	0.22
Cc1c(SCCCCOc2cccc(C(=O)O)c2)ccc(C(=O)CC(C)(C)C)c1O [compound 83]	3.29	0.549
CCCCC(=O)c1ccc(OCCCCCOc2cccc(C(=O)O)c2C)c(C)c1O [Example 49, 3-[5-(3Hydroxy-2-methyl-4-pentanoylphenoxy)pentyloxy]-2-methylbenzoic acid]	> 10	0.426
Cc1c(OCc2cccc(-c3cccc(C(=O)O)c3)c2)ccc(C(=O)c2ccccc2)c1O [compound 66, 3′-((4-Benzoyl-3-hydroxy-2-methylphenoxy)methyl)-[1,1′-biphenyl]-3-carboxylic acid]	2.28	0.769
Cc1c(SCc2cccc(-c3cccc(C(=O)O)c3)c2)ccc(C(=O)CC(C)(C)C)c1O [Example 165, 3′-(((4-(3,3-Dimethylbutanoyl)-3-hydroxy-2-methylphenyl)thio)methyl)-[1,1′-biphenyl]-3-carboxylic acid]	2.53	0.337
COc1ccc(C(=O)O)cc1OCCCCOc1ccc(C(=O)C(C)(C)C)c(O)c1C [compound 105, 3-(4-(3-Hydroxy-2-methyl-4-pivaloylphenoxy)butoxy)-4-methoxybenzoic acid]	0.743	0.288
COc1ccc(C(=O)O)cc1OCC(C)CCOc1ccc(C(=O)CC(C)(C)C)c(O)c1C (stereo not shown) [Example 32, 3-{4-[4-(3,3-Dimethylbutanoyl)-3-hydroxy-2-methylphenoxy]-2-methylbutoxy}-4-methoxybenzoic acid]	0.2	0.127
CCCC(=O)c1ccc(OCC#CCOc2ccc(C(=O)O)cc2OC)c(C)c1O [Example 34, 4-[4-(4-Butanoyl-3-hydroxy-2-methylphenoxy)but-2-ynyloxy]-3-methoxybenzoic acid]	1.9	0.031
COc1c(C(=O)O)cccc1-c1cnc(COc2ccc(C(=O)CC(C)(C)C)c(O)c2C)cn1 [compound 136, 3-(5-((4-(3,3-Dimethylbutanoyl)-3-hydroxy-2-methylphenoxy)methyl)pyrazin-2-yl)-2-methoxybenzoic acid]	0.053	0.129
CCCC(=O)c1ccc(OCc2cnc(-c3cccc(C(=O)O)c3)cn2)c(C)c1O [compound 118, 3-(5-((4-Butyryl-3-hydroxy-2-methylphenoxy)methyl)pyrazin-2-yl)benzoic acid]	1.02	0.482

Source: patent publication US20250179000A1 (Sanford Burnham Prebys Medical Discovery Institute, priority 2021, published 2025)
